Assay results taken from US20100210553A1, “USE OF THE PEPTIDE ASN-ASP-ASP-CYS-GLU- LEU-CYS-VAL-ASN-VAL-ALA-CYS-THR-GLY-CYS-LEU ALONE OR IN COMBINATION WITH THE PEPTIDE THR-THR-SER-GLN-VAL- ARG-PRO-ARG AS A THERAPEUTIC AGENT” (priority 2007, published 2010).
Ends that are not written are not given here.

What was measured:
murine spleen cells = experiment: Th1/Th2 cytokine profiling assay (Ovalbumin-restimulated spleen cells, CBA Kit); format: cell-based, mouse; conditions: 10 micrograms per ml, Ovalbumin restimulation, 72 hours, combination 0.95 mole peptide 1 and 1.05 mole peptide 2
[1] = test system: Primary Human endothelial cells (HUVEC); experiment: Endothelial cell migration assay; format: cell-based; conditions: 10 micrograms per ml, 22 hours
HUVEC = experiment: Endothelial tube formation assay; format: cell-based, human; conditions: 10 micrograms per ml, 20 hours
Procedure: The endothelial tube formation assay is based on the ability of endothelial cells to form three-dimensional capillary-like tubular structures when cultured on a gel of basement membrane extract. The endothelial tube formation assay represents a powerful model for studying inhibition and induction of angiogenesis. Pre-labeled HUVEC with Calcein AM were seeded in a 96-well culture plate coated with extracellular metrix (Chemicon international Cat. ECM625) and treated with—10 micrograms per ml—test peptides in full growth medium. Positive control was vehicle only. The endothelial cells were allowed to form tubes for 20 hours and were then examined under an inverted fluorescent microscope. Duplicate wells for each treatment were photographed and quantitatively analyzed for an average tubule length using image analysis software ImageProPlus. Raw data were expressed as average tubule lengths in pixels ±standard deviation. Statistic p values were computed using the Student's t-test.

Streptococcus pneumoniae = Streptococcus pneumoniae assay; format: cell-based; conditions: 10 micrograms per ml; 5x10^5 CFU/mL, read visually; combination 0.95 mole peptide 1 and 1.05 mole peptide 2 and all other molar ratios from 1:100 to 100:1
HCMV strain AD169 = experiment: HCMV plaque formation assay in MRC-5 cells; conditions: 10 micrograms per ml, 7-10 days
[2] = test system: hepatitis B virus (HBV) ayw strain; experiment: HBV experimental assay system (HepG2-2.2.15, TaqMan PCR of secreted HBV DNA); format: cell-based; conditions: 10 micrograms per ml; HepG2-2.2.15, six days; combination 0.95 mole peptide 1 and 1.05 mole peptide 2
Description: HepG2-2.2.15 is a stable cell line containing the hepatitis B virus (HBV) ayw strain genome (ATCC Cat. No. CRL-11997). Antiviral compounds blocking any late step of viral replication such as transcription, translation, pregenome encapsidation, reverse transcription, particle assembly and release can be identified and characterized using this cell line. In this assay, an active compound will reduce the production of secreted HBV from cells, measured by utilizing real time quantitative PCR (TaqMan) assay to directly and accurately measure HBV DNA copies.
HepG2-2.2.15 cells were plated in 96-well microtiter plates. After 16-24 hours the confluent monolayer of HepG2-2.2.15 cells was washed and the medium was replaced with complete medium containing test peptides—10 micrograms per ml—in duplicate. […] Six days following the initial administration of the peptides, the cell culture supernatants was collected, treated with pronase and DNAse and then used in a real-time quantitative TaqMan PCR assay. The PCR-amplified HBV DNA was detected in real-time by monitoring increases in fluorescence signals that result from the exonucleolytic degradation of a quenched fluorescence probe molecule that hybridizes to the amplified HBV DNA. […] Antiviral activity was calculated from the reduction in HBV DNA levels (% virus control). […]

Row | Substance | change of the production of IL-5 (murine spleen cells) | induction of the production of IFN-γ (murine spleen cells) [%] | induction of the production of IL-2 (murine spleen cells) [%] | induction of the production of IL-4 (murine spleen cells) [%] | induction of the production of TNF-alpha (murine spleen cells) [%] | inhibition of the migration of human endothelial cells [1] [%] | inhibition of the tube formation of human endothelial cells (HUVEC) [%] | inhibition of the growth of Streptococcus pneumoniae (Streptococcus pneumoniae) [%] | inhibition of HCMV plaque formation as compared to the virus control experiment (HCMV strain AD169) | inhibition of HBV replication as compared to the virus control infection [2]
1 | Asn-Asp-Asp-Cys-Glu-Leu-Cys-Val-Asn-Val-Ala-Cys-Thr-Gly-Cys-Leu-OH (NDDCELCVNVACTGCL-OH; cysteine pairing not given here) [Peptide 1, commercially available known peptide, Uroguanylin] | did not significantly change | 80.8 | 66.9 | 143.8 | 57.1 | 14 | 18 | 100 | did not inhibit | no effect
2 | Thr-Thr-Ser-Gln-Val-Arg-Pro-Arg-OH (TTSQVRPR-OH) [Peptide 2, commercially available known peptide, (Gln^18)-Platelet Factor 4 (15-22)] | did not significantly change | 47.4 | 24 | 103.9 | 43.7 | 13 | 24 | 100 | did not inhibit | 31%
